Each block holds one compound with its values, some of them ahead of it.
Assays:
[1] = Maximal NSAID and water concentrations in PG/PEG solvent systems; assay type: physicochemical; set-up: B maximum: unit not given here
Description: With the teaching herein, useful Drug and water concentrations can be determined for a given solvent system. Such concentrations can be described by the equation W=mD+b, where W is a water concentration, D is the Drug concentration, b is the y intercept, and m is the slope.

[2] = Super-solvent effect (Drug solubilized by combinations of solvent alcohols); assay type: physicochemical
Method: Methods. First, the amount of each solvent alcohol required to solubilize one gram of NSAID was determined (saturation amount). Next, each combination of 2, 3 and 4 solvent alcohols were made using the saturation amounts determined by the first step. Finally, the amount of drug that could be solubilized by the solvent systems (i.e. the solvent alcohol combinations) was determined. The super-solvent effect was determined using this protocol, where percent=actual grams solubilized divided by the predicted grams (based upon the first step) expressed as percent increase (e.g. if twice the predicted amount could be solubilized, the super-solvent effect would be % 100.

[3] = Solubility of Drugs in single solvent alcohols; assay type: physicochemical
Method: Briefly, the indicated NSAID was weighed and added to a beaker. To each beaker, incremental amounts of the indicated solvent was weighed and added. The beakers were sealed with aluminum foil and placed at room temperature or in a 35 C water bath for 20-30 minutes. They beakers were shaken frequently to mix the contents. After 20-30 minutes the solvent alcohols were examined. If a single phasic solution was not yet achieved, an additional aliquot of the solvent was added and the cycle was repeated until complete solvation had occurred.

[4] = Super-solvent water effect (maximum water before NSAID precipitates); assay type: physicochemical; details: for Super-solvent Effect: in %
Method: Methods. […] These amounts are chosen based upon the solubility of one gram of NSAID and the amount of the single solvent alcohol for saturation. Next, water was added in step-wise manner to determine the maximum amount that can be added before any visible amount of the NSAID precipitated (i.e., the volume of water that can be added and yet remain single phasic).

[5] = cited from earlier work
[6] = cited from earlier work; remark: listed apart in the source
[7] = Flurbiprofen 2 gm, EtOH 2 gm, IPA 3 gm
[8] = Flurbiprofen 2 gm, PEG 2 gm, EtOH 2 gm
[9] = Flurbiprofen 2 gm, PEG 2 gm, IPA 3 gm
[10] = Flurbiprofen 2 gm, PG 6 gm, EtOH 2 gm
[11] = Flurbiprofen 2 gm, PG 6 gm, IPA 3 gm
[12] = Flurbiprofen 2 gm, PG 6 gm, PEG 2 gm
[13] = Flurbiprofen 3 gm, PEG 2 gm, EtOH 2 gm, IPA 3 gm
[14] = Flurbiprofen 3 gm, PG 6 gm, EtOH 2 gm, IPA 3 gm
[15] = Flurbiprofen 3 gm, PG 6 gm, PEG 2 gm, EtOH 2 gm
[16] = Flurbiprofen 3 gm, PG 6 gm, PEG 2 gm, IPA 3 gm
[17] = Flurbiprofen 4 gm, PG 6 gm, PEG 2 gm, EtOH 2 gm, IPA 3 gm

- Maximum Drug Concentration in single alcohol: EtOH ([3]; Solubility at Room Temperature): 1.23
- Maximum Drug Concentration in single alcohol: IPA ([3]; Solubility at Room Temperature): 0.62
SMILES: CCCCOc1ccc(CC(=O)NO)cc1 [Bufexamac]

- Super-solvent Effect ([2]; PEG 400 11 gr, EtOH 6 gr): 81.0%
- Super-solvent Effect ([2]; PG 6 gr, EtOH 6 gr): 90.9%
- Super-solvent Effect ([2]; PG 6 gr, PEG 400 11 gr): 62.2%
- Super-solvent Effect ([2]; PG 6 gr, PEG 400 11 gr, EtOH 6 gr): 54.8%
- Maximum Drug Concentration in single alcohol: EtOH ([3]; Solubility at 35 C): 14.29
- Maximum Drug Concentration in single alcohol: PEG ([3]; Solubility at 35 C): 8.33
- Maximum Drug Concentration in single alcohol: PG ([3]; Solubility at 35 C): 14.29
- Maximum Drug Concentration in single alcohol: EtOH ([3]; Solubility at Room Temperature): 11.11
- Maximum Drug Concentration in single alcohol: PEG ([3]; Solubility at Room Temperature): 7.69
- Maximum Drug Concentration in single alcohol: PG ([3]; Solubility at Room Temperature): 14.29
SMILES: O=C(O)Cc1ccccc1Nc1c(Cl)cccc1Cl [Diclofenac]

- Flurbiprofen % W/W ([4]; Flurbiprofen 1 gm, EtOH 2 gm): 20.0 % W/W
- Water Observed ([4]; Flurbiprofen 1 gm, EtOH 2 gm): 2 gm
- Flurbiprofen % W/W ([4]; Flurbiprofen 1 gm, IPA 3 gm): 14.3 % W/W
- Water Observed ([4]; Flurbiprofen 1 gm, IPA 3 gm): 3 gm
- Flurbiprofen % W/W ([4]; Flurbiprofen 1 gm, PEG 2 gm): 25.0 % W/W
- Water Observed ([4]; Flurbiprofen 1 gm, PEG 2 gm): 1 gm
- Flurbiprofen % W/W ([4]; Flurbiprofen 1 gm, PG 6 gm): 12.5 % W/W
- Water Observed ([4]; Flurbiprofen 1 gm, PG 6 gm): 1 gm
- Flurbiprofen % W/W [4, 7]: 18.2 % W/W
- Super-solvent Effect [4, 7]: 37.1
- Flurbiprofen % W/W [4, 8]: 25.0 % W/W
- Super-solvent Effect [4, 8]: 0.0
- Flurbiprofen % W/W [4, 9]: 15.4 % W/W
- Super-solvent Effect [4, 9]: 135.7
- Flurbiprofen % W/W [4, 10]: 12.5 % W/W
- Super-solvent Effect [4, 10]: 160.0
- Flurbiprofen % W/W [4, 11]: 11.8 % W/W
- Super-solvent Effect [4, 11]: 104.5
- Flurbiprofen % W/W [4, 12]: 14.3 % W/W
- Super-solvent Effect [4, 12]: 140.0
- Flurbiprofen % W/W [4, 13]: 18.8 % W/W
- Super-solvent Effect [4, 13]: 60.0
- Flurbiprofen % W/W [4, 14]: 13.6 % W/W
- Super-solvent Effect [4, 14]: 90.5
- Flurbiprofen % W/W [4, 15]: 17.6 % W/W
- Super-solvent Effect [4, 15]: 30.8
- Flurbiprofen % W/W [4, 16]: 13.6 % W/W
- Super-solvent Effect [4, 16]: 117.1
- Flurbiprofen % W/W [4, 17]: 15.4 % W/W
- Super-solvent Effect [4, 17]: 81.5
- Maximum Drug Concentration in single alcohol: EtOH ([3]; Solubility at 35 C): 33.33
- Maximum Drug Concentration in single alcohol: IPA ([3]; Solubility at 35 C): 25.00
- Maximum Drug Concentration in single alcohol: PEG ([3]; Solubility at 35 C): 33.33
- Maximum Drug Concentration in single alcohol: PG ([3]; Solubility at 35 C): 14.29
- Maximum Drug Concentration in single alcohol: EtOH ([3]; Solubility at Room Temperature): 16.67
- Maximum Drug Concentration in single alcohol: IPA ([3]; Solubility at Room Temperature): 14.29
- Maximum Drug Concentration in single alcohol: PEG ([3]; Solubility at Room Temperature): 12.50
- Maximum Drug Concentration in single alcohol: PG ([3]; Solubility at Room Temperature): 6.25
SMILES: CC(C(=O)O)c1ccc(-c2ccccc2)c(F)c1 (stereo not shown) [Flurbiprofen]
- Log P [5]: 4.16
- pKa [6]: 4.14

- Maximum Drug Concentration in single alcohol: EtOH ([3]; Solubility at Room Temperature): 0.25
- Maximum Drug Concentration in single alcohol: IPA ([3]; Solubility at Room Temperature): 0.10
- Maximum Drug Concentration in single alcohol: PEG ([3]; Solubility at Room Temperature): 0.05
- Maximum Drug Concentration in single alcohol: PG ([3]; Solubility at Room Temperature): 0.05
SMILES: COc1ccc2c(c1)c(CC(=O)O)c(C)n2C(=O)c1ccc(Cl)cc1 [Indomethacin]
- Log P [5]: 3.08

- Water Added Until Precipitation Occurs ([1]; Naproxen 0.1215 gm, PG 2 gm, PEG 400 2 gm): 3.5 gm
- Water Added Until Precipitation Occurs ([1]; Naproxen 0.1755 gm, PG 1 gm, PEG 400 3 gm): 3.5 gm
- Water Added Until Precipitation Occurs ([1]; Naproxen 0.1755 gm, PG 4 gm, PEG 400 3 gm): 5 gm
- Water Added Until Precipitation Occurs ([1]; Naproxen 0.2295 gm, PG 3 gm, PEG 400 4 gm): 6.5 gm
- Water Added Until Precipitation Occurs ([1]; Naproxen 0.27 gm, PG 1 gm, PEG 400 4 gm): 4.5 gm
- Water Added Until Precipitation Occurs ([1]; Naproxen 0.324 gm, PG 2 gm, PEG 400 2 gm): 1 gm
- Water Added Until Precipitation Occurs ([1]; Naproxen 0.405 gm, PG 2 gm, PEG 400 2 gm): 0.5 gm
- Water Added Until Precipitation Occurs ([1]; Naproxen 0.468 gm, PG 1 gm, PEG 400 3 gm): 1 gm
- Water Added Until Precipitation Occurs ([1]; Naproxen 0.468 gm, PG 4 gm, PEG 400 3 gm): 2.5 gm
- Water Added Until Precipitation Occurs ([1]; Naproxen 0.54 gm, PG 1 gm, PEG 400 4 gm): 2.5 gm
- Water Added Until Precipitation Occurs ([1]; Naproxen 0.585 gm, PG 1 gm, PEG 400 3 gm): 0.5 gm
- Water Added Until Precipitation Occurs ([1]; Naproxen 0.585 gm, PG 4 gm, PEG 400 3 gm): 1.5 gm
- Water Added Until Precipitation Occurs ([1]; Naproxen 0.612 gm, PG 3 gm, PEG 400 4 gm): 2.5 gm
- Water Added Until Precipitation Occurs ([1]; Naproxen 0.675 gm, PG 1 gm, PEG 400 4 gm): 1 gm
- Water Added Until Precipitation Occurs ([1]; Naproxen 0.765 gm, PG 3 gm, PEG 400 4 gm): 1.5 gm
- Drug concentration range obtained at saturation ([1]; PG and PEG 50% to 82%, PG to PEG ratio 0.33 to 1.3): up to 13%
- B maximum (intercept of water versus Naproxen line) ([1]; PG/PEG 1/3): 52.794
- B maximum (intercept of water versus Naproxen line) ([1]; PG/PEG 1/4): 47.637
- B maximum (intercept of water versus Naproxen line) ([1]; PG/PEG 2/2): 54.158
- B maximum (intercept of water versus Naproxen line) ([1]; PG/PEG 3/4): 52.964
- B maximum (intercept of water versus Naproxen line) ([1]; PG/PEG 4/3): 56.913
SMILES: COc1ccc2cc([C@H](C)C(=O)O)ccc2c1 [Naproxen]

- Maximum Drug Concentration in single alcohol: EtOH ([3]; Solubility at Room Temperature): 3.23
SMILES: O=C(O)c1cccnc1Nc1cccc(C(F)(F)F)c1 [Niflumic]

Continued, compound first:

SMILES: CC(=O)Nc1ccc(O)cc1 [Acetaminophen]
- B maximum ([1]; PG/PEG 1/3, b of y = −5.7055x + b): 100
- B maximum ([1]; PG/PEG 1/4, b of y = −6.4787x + b): 118
- B maximum ([1]; PG/PEG 2/2, b of y = −11.52x + b): 154
- B maximum ([1]; PG/PEG 3/4, b of y = −7.7243x + b): 124
- B maximum ([1]; PG/PEG 4/3, b of y = −6.3927x + b): 102
- Super-solvent Effect ([2]; EtOH 5 gr, IPA 11 gr): 21.6%
- Super-solvent Effect ([2]; PEG 400 9 gr, EtOH 5 gr): 60.0%
- Super-solvent Effect ([2]; PEG 400 9 gr, EtOH 5 gr, IPA 11 gr): 55.6%
- Super-solvent Effect ([2]; PEG 400 9 gr, IPA 11 gr): 63.8%
- Super-solvent Effect ([2]; PG 9 gr, EtOH 5 gr): 21.2%
- Super-solvent Effect ([2]; PG 9 gr, EtOH 5 gr, IPA 11 gr): 14.6%
- Super-solvent Effect ([2]; PG 9 gr, IPA 11 gr): 22.2%
- Super-solvent Effect ([2]; PG 9 gr, PEG 400 9 gr): 22.0%
- Super-solvent Effect ([2]; PG 9 gr, PEG 400 9 gr, EtOH 5 gr): 41.8%
- Super-solvent Effect ([2]; PG 9 gr, PEG 400 9 gr, EtOH 5 gr, IPA 11 gr): 52.5%
- Super-solvent Effect ([2]; PG 9 gr, PEG 400 9 gr, IPA 11 gr): 43.3%
- Maximum Drug Concentration in single alcohol: EtOH ([3]; Solubility at 35 C): 16.67
- Maximum Drug Concentration in single alcohol: IPA ([3]; Solubility at 35 C): 8.33
- Maximum Drug Concentration in single alcohol: PEG ([3]; Solubility at 35 C): 10.00
- Maximum Drug Concentration in single alcohol: PG ([3]; Solubility at 35 C): 10.00
- Maximum Drug Concentration in single alcohol: EtOH ([3]; Solubility at Room Temperature): 9.52
- Maximum Drug Concentration in single alcohol: IPA ([3]; Solubility at Room Temperature): 4.35
- Maximum Drug Concentration in single alcohol: PEG ([3]; Solubility at Room Temperature): 5.41
- Maximum Drug Concentration in single alcohol: PG ([3]; Solubility at Room Temperature): 4.76

SMILES: C=CCOc1ccc(CC(=O)O)cc1Cl [alclofenac]
- Log P [5]: 2.47
- pKa [6]: 4.26

SMILES: O=C(O)Cc1ccc(-c2ccccc2)cc1 [felbinac]
- pKa [6]: 4.29

SMILES: O=C(O)c1ccccc1Nc1cccc(C(F)(F)F)c1 [flufenamic acid]
- Log P [5]: 5.62

SMILES: Cc1cccc(Nc2ccccc2C(=O)O)c1C [mefenamic acid]
- Log P [5]: 5.12
- pKa [6]: 3.69

SMILES: CN1C(C(=O)Nc2ccccn2)=C(O)c2ccccc2S1(=O)=O [piroxicam]
- Log P [5]: 1.8
- pKa [6]: 3.6

SMILES: CC(C(=O)O)c1ccc(C(=O)c2ccccc2)s1 (stereo not shown) [tiaprofenic acid]
- pKa [6]: 4.05

From patent US20130243707A1, “TOPICAL COMPOSITIONS” (priority 2006, published 2013)
